Results: paper PMC4303209, “A novel phosphatidylinositol 3-kinase (PI3K) inhibitor directs a potent FOXO-dependent, p53-independent cell cycle arrest phenotype characterized by the differential induction of a subset of FOXO-regulated genes” (Breast Cancer Research : BCR, 2014)

Tested on: MCF-7 breast cancer cells
Assay: Microarray gene expression analysis (Agilent whole human genome 4 x 44K; compound vs DMSO, LIMMA log2 fold change)
Format: cell-based

Oc1cccc(-c2nc(N3CCOCC3)c3oc4ncccc4c3n2)c1 [PI-103]
EYA1 log2FC (gene EYA1 (2138), apoptosis genes): 0.027
log2FC EYA1 (gene EYA1 (Gene 2138), cell cycle genes): 0.027
FABP1 log2FC (gene FABP1 (2168), apoptosis genes): -0.014
FAIM2 log2FC (gene FAIM2 (23017), apoptosis genes): 0.077
FAM3B log2FC (gene FAM3B (54097), apoptosis genes): -0.110
FAM32A log2FC (gene FAM32A (26017), apoptosis genes): -0.300
log2FC FAM32A (gene FAM32A (Gene 26017), cell cycle genes): -0.30
log2FC (gene FAM58A (Gene 92002), cell cycle genes): 0.17
FAS log2FC (gene FAS (355), apoptosis genes): -0.278
log2FC (gene FBXL15 (Gene 79176), cell cycle genes): 0.25
log2FC FGFR1OP (gene FGFR1OP (Gene 11116), cell cycle genes): -0.20
FIS1 log2FC (gene FIS1 (51024), apoptosis genes): 0.161
FKSG2 log2FC (gene FKSG2 (59347), apoptosis genes): -0.076
log2FC (gene FMN2 (Gene 56776), cell cycle genes): 0.00262
FOXB1 log2FC (gene FOXB1 (27023), apoptosis genes): -0.433
log2FC (gene FSD1 (Gene 79187), cell cycle genes): -0.09
GADD45G log2FC (gene GADD45G (10912), apoptosis genes): -0.195
GAPDH log2FC (gene GAPDH (2597), apoptosis genes): 0.013
log2FC (gene GAS2L1 (Gene 10634), cell cycle genes): -0.26
log2FC GAS2L2 (gene GAS2L2 (Gene 246176), cell cycle genes): -0.00222
GAS6 log2FC (gene GAS6 (2621), apoptosis genes): -0.103
GATA6 log2FC (gene GATA6 (2627), apoptosis genes): 0.052
log2FC GATA6 (gene GATA6 (Gene 2627), cell cycle genes): 0.05
GCG log2FC (gene GCG (2641), apoptosis genes): 0.035
GCLM log2FC (gene GCLM (2730), apoptosis genes): -0.246
GCM2 log2FC (gene GCM2 (9247), apoptosis genes): -0.063
log2FC (gene GEM (Gene 2669), cell cycle genes): 0.84
GFRAL log2FC (gene GFRAL (389400), apoptosis genes): -0.028
GHRL log2FC (gene GHRL (51738), apoptosis genes): -0.060
GIMAP5 log2FC (gene GIMAP5 (55340), apoptosis genes): 0.028
GJB6 log2FC (gene GJB6 (10804), apoptosis genes): 0.090
log2FC (gene GOLGA2 (Gene 2801), cell cycle genes): 0.24
log2FC (gene GORASP1 (Gene 64689), cell cycle genes): 0.05
log2FC (gene GORASP2 (Gene 26003), cell cycle genes): -0.48
GPI log2FC (gene GPI (2821), apoptosis genes): 0.047
GPR65 log2FC (gene GPR65 (8477), apoptosis genes): -0.016
GRK1 log2FC (gene GRK1 (6011), apoptosis genes): -0.053
log2FC (gene GTPBP8 (Gene 29083), cell cycle genes): 0.10
log2FC (gene GTSE1 (Gene 51512), cell cycle genes): -0.33
log2FC H1FOO (gene H1FOO (Gene 132243), cell cycle genes): 0.05
HCLS1 log2FC (gene HCLS1 (3059), apoptosis genes): 0.112
log2FC (gene HELLS (Gene 3070), cell cycle genes): 0.14
HIPK3 log2FC (gene HIPK3 (10114), apoptosis genes): -0.044
log2FC HORMAD2 (gene HORMAD2 (Gene 150280), cell cycle genes): 0.09
log2FC HPGD (gene HPGD (Gene 3248), cell cycle genes): 0.065
HPN log2FC (gene HPN (3249), apoptosis genes): -0.076
HTRA2 log2FC (gene HTRA2 (27429), apoptosis genes): 0.078
log2FC HTRA2 (gene HTRA2 (Gene 27429), cell cycle genes): 0.08
IFI6 log2FC (gene IFI6 (2537), apoptosis genes): 0.0043
IFNA2 log2FC (gene IFNA2 (3440), apoptosis genes): 0.014
IFNB1 log2FC (gene IFNB1 (3456), apoptosis genes): 0.022
IL1A log2FC (gene IL1A (3552), apoptosis genes): -0.067
IL2RA log2FC (gene IL2RA (3559), apoptosis genes): -0.038
IL2RB log2FC (gene IL2RB (3560), apoptosis genes): -0.066
IL12A log2FC (gene IL12A (3592), apoptosis genes): -0.262
log2FC IL12A (gene IL12A (Gene 3592), cell cycle genes): -0.26
IL12B log2FC (gene IL12B (3593), apoptosis genes): -0.023
IL17A log2FC (gene IL17A (3605), apoptosis genes): 0.037
IL19 log2FC (gene IL19 (29949), apoptosis genes): -0.032
ILK log2FC (gene ILK (3611), apoptosis genes): -0.047
log2FC ILKAP (gene ILKAP (Gene 80895), cell cycle genes): -0.08
INSL6 log2FC (gene INSL6 (11172), apoptosis genes): 0.047
ISL1 log2FC (gene ISL1 (3670), apoptosis genes): -0.142
ITGA6 log2FC (gene ITGA6 (3655), apoptosis genes): -0.139
ITGB2 log2FC (gene ITGB2 (3689), apoptosis genes): 0.148
ITM2C log2FC (gene ITM2C (81618), apoptosis genes): 0.019
log2FC KATNB1 (gene KATNB1 (Gene 10300), cell cycle genes): 0.26
log2FC KCNA5 (gene KCNA5 (Gene 3741), cell cycle genes): -0.0139
KDR log2FC (gene KDR (3791), apoptosis genes): -0.033
log2FC (gene KIAA0101 (Gene 9768), cell cycle genes): 0.28
KIAA1324 log2FC (gene KIAA1324 (57535), apoptosis genes): -0.031
log2FC KIF2B (gene KIF2B (Gene 84643), cell cycle genes): -0.17
log2FC (gene KIF13A (Gene 63971), cell cycle genes): 0.06
log2FC (gene KIF23 (Gene 9493), cell cycle genes): 0.55
log2FC KIF25 (gene KIF25 (Gene 3834), cell cycle genes): 0.00228
KLF4 log2FC (gene KLF4 (9314), apoptosis genes): -0.178
KRT20 log2FC (gene KRT20 (54474), apoptosis genes): -0.013
LALBA log2FC (gene LALBA (3906), apoptosis genes): -0.012
log2FC LATS1 (gene LATS1 (Gene 9113), cell cycle genes): 0.0843
log2FC (gene LATS2 (Gene 26524), cell cycle genes): 0.38
LCMT1 log2FC (gene LCMT1 (51451), apoptosis genes): 0.003
LCN2 log2FC (gene LCN2 (3934), apoptosis genes): 0.063
log2FC (gene LEMD3 (Gene 23592), cell cycle genes): 0.29
LGALS1 log2FC (gene LGALS1 (3956), apoptosis genes): 0.053
LGALS12 log2FC (gene LGALS12 (85329), apoptosis genes): 0.050
LGALS14 log2FC (gene LGALS14 (56891), apoptosis genes): 0.104
log2FC (gene LMNA (Gene 4000), cell cycle genes): -0.0134
LRP1 log2FC (gene LRP1 (4035), apoptosis genes): 0.043
log2FC (gene LRP6 (Gene 4040), cell cycle genes): -0.12
log2FC (gene LSM11 (Gene 134353), cell cycle genes): 0.09
LTA log2FC (gene LTA (4049), apoptosis genes): 0.136
LTF log2FC (gene LTF (4057), apoptosis genes): 0.014
MAD2L1 log2FC (gene MAD2L1 (4085), apoptosis genes): -0.145
MAEL log2FC (gene MAEL (84944), apoptosis genes): -0.172
log2FC MAEL (gene MAEL (Gene 84944), cell cycle genes): -0.17
MAGED1 log2FC (gene MAGED1 (9500), apoptosis genes): -0.047
MAGEH1 log2FC (gene MAGEH1 (28986), apoptosis genes): 0.025
MAP2K5 log2FC (gene MAP2K5 (5607), apoptosis genes): -0.018
MAP2K7 log2FC (gene MAP2K7 (5609), apoptosis genes): 0.032
log2FC (gene MAP3K8 (Gene 1326), cell cycle genes): 0.0265
log2FC (gene MAP4 (Gene 4134), cell cycle genes): -0.23
MAPK1 log2FC (gene MAPK1 (5594), apoptosis genes): 0.017
log2FC (gene MAPK4 (Gene 5596), cell cycle genes): -0.08
log2FC (gene MAPK6 (Gene 5597), cell cycle genes): 0.12
MAPK8 log2FC (gene MAPK8 (5599), apoptosis genes): -0.015
MAPK9 log2FC (gene MAPK9 (5601), apoptosis genes): -0.052
log2FC (gene MAPK12 (Gene 6300), cell cycle genes): -0.18
MAPT log2FC (gene MAPT (4137), apoptosis genes): 0.031
log2FC MCM4 (gene MCM4 (Gene 4173), cell cycle genes): -0.12
MDM4 log2FC (gene MDM4 (4194), apoptosis genes): -0.144
log2FC (gene MED25 (Gene 81857), cell cycle genes): -0.19
MKL1 log2FC (gene MKL1 (57591), apoptosis genes): 0.300
MKNK1 log2FC (gene MKNK1 (8569), apoptosis genes): 0.102
MNDA log2FC (gene MNDA (4332), apoptosis genes): 0.077
MSX2 log2FC (gene MSX2 (4488), apoptosis genes): 0.052
MT3 log2FC (gene MT3 (4504), apoptosis genes): -0.313
log2FC (gene MYOG (Gene 4656), cell cycle genes): -0.13
NACA log2FC (gene NACA (4666), apoptosis genes): 0.038
log2FC NANOG (gene NANOG (Gene 79923), cell cycle genes): -0.07
log2FC (gene NASP (Gene 4678), cell cycle genes): 0.16
NCF1 log2FC (gene NCF1 (653361), apoptosis genes): 0.093
NCF2 log2FC (gene NCF2 (4688), apoptosis genes): -0.014
log2FC (gene NCOR1 (Gene 9611), cell cycle genes): 0.25
NDUFS3 log2FC (gene NDUFS3 (4722), apoptosis genes): 0.064
NEURL log2FC (gene NEURL (9148), apoptosis genes): 0.053
NEUROD1 log2FC (gene NEUROD1 (4760), apoptosis genes): 0.039
log2FC NEUROG1 (gene NEUROG1 (Gene 4762), cell cycle genes): -0.44
NLE1 log2FC (gene NLE1 (54475), apoptosis genes): 0.195
NME6 log2FC (gene NME6 (10201), apoptosis genes): -0.015
log2FC NME6 (gene NME6 (Gene 10201), cell cycle genes): -0.0153
NOS1AP log2FC (gene NOS1AP (9722), apoptosis genes): 0.021
NOTCH1 log2FC (gene NOTCH1 (4851), apoptosis genes): -0.008
NOX5 log2FC (gene NOX5 (79400), apoptosis genes): 0.00161
log2FC NOX5 (gene NOX5 (Gene 79400), cell cycle genes): 0.00161
NTRK1 log2FC (gene NTRK1 (4914), apoptosis genes): 0.391
log2FC (gene NUMA1 (Gene 4926), cell cycle genes): -0.09
log2FC (gene NUP153 (Gene 9972), cell cycle genes): -0.34
log2FC NUP155 (gene NUP155 (Gene 9631), cell cycle genes): -0.14
log2FC (gene NUP188 (Gene 23511), cell cycle genes): -0.16
NUPR1 log2FC (gene NUPR1 (26471), apoptosis genes): 0.072
OSR1 log2FC (gene OSR1 (130497), apoptosis genes): -0.027
P4HB log2FC (gene P4HB (5034), apoptosis genes): 0.036
log2FC (gene PA2G4 (Gene 5036), cell cycle genes): -0.51
PAFAH2 log2FC (gene PAFAH2 (5051), apoptosis genes): -0.020
PAK6 log2FC (gene PAK6 (56924), apoptosis genes): 0.142
log2FC PAK6 (gene PAK6 (Gene 56924), cell cycle genes): 0.14
log2FC (gene PAPD5 (Gene 64282), cell cycle genes): 0.31
PARK7 log2FC (gene PARK7 (11315), apoptosis genes): 0.018
PAX2 log2FC (gene PAX2 (5076), apoptosis genes): 0.009
log2FC PCNA (gene PCNA (Gene 5111), cell cycle genes): -0.28
PCSK9 log2FC (gene PCSK9 (255738), apoptosis genes): -0.221
log2FC PDCD2L (gene PDCD2L (Gene 84306), cell cycle genes): -0.12
PDCD5 log2FC (gene PDCD5 (9141), apoptosis genes): -0.049
PDCL3 log2FC (gene PDCL3 (79031), apoptosis genes): -0.222
PDE1B log2FC (gene PDE1B (5153), apoptosis genes): 0.019
PDE3A log2FC (gene PDE3A (5139), apoptosis genes): 0.00129
log2FC PDE3A (gene PDE3A (Gene 5139), cell cycle genes): 0.00129
